Results published in patent US11046682B2, “Fused heterocyclic derivatives, their preparation methods thereof and medical uses thereof” (Beijing Innocare Pharma Tech Co., Ltd., priority 2016, dated 2021).

Key:
[1] = target: indoleamine 2,3-dioxygenase (IDO) in Hela cells (Homo sapiens (Human), UniProt P14902); assay: IDO intracellular activity inhibition testing in Hela cells induced by IFN-γ (Ehrlich method); format: cell-based; conditions: 24 hours, OD490, 8 concentration points
Method: IDO Intracellular Activity Inhibition Testing
The effects of the compounds of the invention on the activity of indoleamine 2,3-dioxygenase (IDO) in Hela cells induced by IFN-γ were evaluated by the Ehrlich method.
The experimental principle is summarized as follows: IDO expression is low in Hela cells under no induction, but a certain concentration of IFN-γ can induces Hela cells to express IDO which catalyzes the conversion of tryptophan to N-formyl kynurenine, which in turn is hydrolyzed by trichloroacetic acid to give kynurenine. Kynurenine then reacts with the Ehrlich reagent to give a color enabling detection of the IDO activity. The absorbance at 490 nm (OD490) is directly proportional to the IDO activity.
A compound was dissolved in DMSO (Sigma, Cat. No. D5879) and diluted to 5 mM, then serially diluted 3-fold with DMSO to a minimum concentration of 2.29 μM, and each concentration point was diluted 50-fold with FBS-free DMEM medium (ThermoFisher, Cat. No. 11995073). If a compound's IC50 value is very low, the initial concentration of the compound was lowered.
Hela cells (ATCC, Cat. No. CCL-2) were cultured in DMEM complete medium containing 10% FBS (GBICO, Cat. No. 10099-141) and 100 U/mL streptomycin mixture (ThermoFisher, Cat. No. 15140122). When covering the culture vessel 80-90%, the cells were digested with 0.25% trypsin (containing EDTA) (ThermoFisher, Cat. No. 25200056) and planted in 96-well plates (Corning, Cat. No. 3599), 20000 cells per well (80 μL of DMEM medium). The plates were then incubated in a 37° C., 5% CO2 incubator overnight (18-20 hours).
After overnight, 10 μL of DMEM-diluted compound and 10 μL of 500 ng/mL of INF-γ were added to each well, and gently mixed and the 96-well plates were placed in a 37° C., 5% CO2 incubator for further culturing. After 24 hours, they were removed and centrifuged at room temperature 2000×g for 5 min, and then the supernatants were transferred to reaction plates (Sigma, Cat. No. CLS3695). One-twentieth of trichloroacetic acid (Sigma, Cat. No. T9159) was added and incubated at 60° C. After 30 min, the reaction plates were centrifuged at room temperature 2000×g for 5 min. The supernatants were transferred to clean reaction plates, an equal volume of the Ehrlich reagent was added, mixed, and incubated at room temperature. After 15 min, OD490 of each well was measured.
In this experiment, OD490 without IFN-γ but with DMEM medium replacement was referred as OD490100% inhibition. OD490 with IFN-γ and 0.2% DMSO was referred as OD4900% inhibition. The percentage of inhibition on the IDO1 activity in Hela cells by a compound was calculated using the following formula: Inhibition %=100−100*(OD490compound−OD490100% inhibition)/(OD4900% inhibition−OD490100% inhibition)
(§1) Where Y is the percentage of inhibition, Bottom is the bottom platform value of the S-curve, Top is the top platform value of the S-curve, X is the logarithm of the concentration of the test compound, and slope factor is the slope coefficient of the curve.

[2] = target: full-length human recombinant IDO1 protein (Homo sapiens (Human), UniProt P14902); assay: IDO enzyme activity inhibition testing (Ehrlich method); format: biochemical; conditions: OD490, 10 concentration points
full-length human recombinant IDO1 protein, sequence (P14902 whole entry): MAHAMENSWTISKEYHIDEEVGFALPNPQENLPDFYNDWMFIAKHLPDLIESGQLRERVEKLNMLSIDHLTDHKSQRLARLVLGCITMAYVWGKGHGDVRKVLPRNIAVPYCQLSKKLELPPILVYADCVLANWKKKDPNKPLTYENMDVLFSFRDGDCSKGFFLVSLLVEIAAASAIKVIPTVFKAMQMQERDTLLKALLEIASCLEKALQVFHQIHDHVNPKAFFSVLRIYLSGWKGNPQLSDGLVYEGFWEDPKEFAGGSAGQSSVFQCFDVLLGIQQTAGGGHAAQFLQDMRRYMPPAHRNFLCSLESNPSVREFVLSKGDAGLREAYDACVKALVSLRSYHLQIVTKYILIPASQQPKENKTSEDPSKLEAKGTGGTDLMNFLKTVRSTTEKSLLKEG
Method: IDO Enzyme Activity Inhibition Testing
The effects of the compounds of the invention on the activity of indoleamine 2,3-dioxygenase (IDO) were evaluated by the Ehrlich method.
The experimental principle is summarized as follows: IDO1 catalyzes oxidation of tryptophan to form N-formyl kynurenine, N-formyl kynurenine is subsequently hydrolyzed by trichloroacetic acid to form kynurenine, and kynurenine further reacts with the Ehrlich reagent to make the solution yellow. The absorbance at 490 nm (OD490) is directly proportional to the activity of IDO1.
The experimental methods are summarized as follows:
The reaction buffer was 50 mM 2-(N-morpholine)ethanesulfonic acid-hydrate (Sigma, Cat. No. 69889); the full-length human recombinant IDO1 protein was purchased from the Tsinghua Protein Research Technology Center and diluted to a 33.6 ng/μL enzyme solution with the reaction buffer; the substrate solution was prepared with the reaction buffer containing 20 mM vitamin C (Sigma, Cat. No. A5960), 150 μM L-tryptophan (Sigma, Cat. No. T0254), 2250 UI/mL catalase (Sigma, Cat. No. C30), and 10 μM methylene blue (Sigma, Cat. No. 28514); the reaction termination solution was 30% (mass/volume) trichloroacetic acid (Sigma, Cat. No. T9159) aqueous solution; the Ehrlich reagent was 2% p-dimethylaminobenzaldehyde (Sigma, Cat. No. 156477) acetic acid (Macklin, Cat. No. A801295) solution.
A compound was dissolved in DMSO (Sigma, Cat. No. D5879) and diluted to 1 mM, then serially diluted 3-fold with DMSO to a minimum concentration of 50.8 nM, and each concentration was further diluted 25-fold with the reaction buffer. If a compound's IC50 value was very low, the initial concentration of the compound was decreased.
A 10-μL compound solution and a 10-μL enzyme solution were added to a 96-well plate (Sigma, Cat. No. CLS3695), mixed well and incubated at room temperature. After 15 min, a 20-μL substrate solution was added and incubated at 60° C. after mixing for 30 min. The reaction plate was equilibrated to room temperature and 60 μL of the Ehrlich reagent was added. After incubation for 15 min, OD490 of each well was measured.
In this experiment, OD490 without enzyme was referred as OD490100% inhibition, and OD490 with enzyme added but without compound was referred as OD4900% inhibition.
as §1

CT26 tumors = conditions: repeated doses; cited from earlier work
plasma IDO1 = plasma IDO1 (Mus musculus (Mouse), UniProt P28776); conditions: nude mice, single dose; at the level of IDO-deficient mice; cited from earlier work
plasma IDO1, sequence (P28776 whole entry): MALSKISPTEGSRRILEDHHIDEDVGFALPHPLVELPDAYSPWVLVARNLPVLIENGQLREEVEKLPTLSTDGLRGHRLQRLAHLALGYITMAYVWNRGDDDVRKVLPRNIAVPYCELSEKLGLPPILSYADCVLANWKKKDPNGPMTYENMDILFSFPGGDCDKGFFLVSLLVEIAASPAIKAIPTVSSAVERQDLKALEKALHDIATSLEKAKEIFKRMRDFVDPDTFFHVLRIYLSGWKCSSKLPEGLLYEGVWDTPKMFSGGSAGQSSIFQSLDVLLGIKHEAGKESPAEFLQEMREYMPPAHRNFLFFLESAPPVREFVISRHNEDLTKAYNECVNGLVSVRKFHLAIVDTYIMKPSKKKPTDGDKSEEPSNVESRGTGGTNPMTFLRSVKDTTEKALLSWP

indoleamine 2,3-dioxygenase (IDO) in Hela cells, sequence (P14902 whole entry): as the sequence (P14902 whole entry) above

Row | SMILES | IC50 [1] [nM] | IC50 [2] [nM] | expansion of CT26 tumors (CT26 tumors) | activity of plasma IDO1 (plasma IDO1)
1 | O=C(Cc1c(-c2ccccc2)ccc2cncn12)Nc1cn[nH]c1 [Compound 54, 2-(6-phenylimidazo[1,5-a]pyridin-5-yl)-N-(1H-pyrazol-4-yl)acetamide] | 1000 to 10000 | 250 to 1500 |  | 
2 | O=C(Cc1c(-c2ccccc2)ccc2cncn12)Nc1ccc(C(=O)NCCN2CCOCC2)cc1 [Compound 49, N-(2-morpholinoethyl)-4-(2-(6-phenylimidazo[1,5-a]pyridin-5-yl)acetamido)benzamide] | < 1000 | < 250 |  | 
3 | N#Cc1ccc(NC(=O)Nc2c(C3=CCCC3)ccc3cncn23)cc1 [Compound 24, 1-(4-cyanophenyl)-3-(6-(cyclopent-1-en-1-yl)imidazo[1,5-a]pyridin-5-yl)urea] | 1000 to 10000 | < 250 |  | 
4 | N#Cc1ccc(NC(=O)Nc2c(-c3ccccc3F)ccc3cncn23)cc1 [Compound 23, 1-(4-cyanophenyl)-3-(6-(2-fluorophenyl)imidazo[1,5-a]pyridin-5-yl)urea] | < 1000 | < 250 |  | 
5 | N#Cc1ccc(NC(=O)Nc2c(-c3cccc(F)c3)ccc3cncn23)cc1 [Compound 22, 1-(4-cyanophenyl)-3-(6-(3-fluorophenyl)imidazo[1,5-a]pyridin-5-yl)urea] | < 1000 | < 250 |  | 
6 | N#Cc1ccc(NC(=O)Nc2c(-c3ccccc3)ccc3cncn23)cc1 [Compound 17, 1-(4-cyanophenyl)-3-(6-phenylimidazo[1,5-a]pyridin-5-yl)urea] | < 1000 | < 250 |  | 
7 | O=C(Cc1c(-c2ccccc2)ccc2cncn12)Nc1ccc(-c2cn[nH]c2)cc1 [Compound 51, N-(4-(1H-pyrazol-4-yl)phenyl)-2-(6-phenylimidazo[1,5-a]pyridin-5-yl)acetamide] | < 1000 | < 250 |  | 
8 | N#Cc1ccc(NC(=O)Cc2c(-c3ccccc3)ccc3cncn23)cc1 [Compound 37, N-(4-cyanophenyl)-2-(6-phenylimidazo[1,5-a]pyridin-5-yl)acetamide] | < 1000 | < 250 |  | 
9 | N#Cc1ccc(NC(=O)Nc2c(Cl)ccc3cncn23)cc1 [Compound 19, 1-(6-chloroimidazo[1,5-a]pyridin-5-yl)-3-(4-cyanophenyl)urea] | 1000 to 10000 | < 250 |  | 
10 | O=C(Cc1c(-c2ccccc2)ccc2cncn12)Nc1ccc(C(=O)NCCCN2CCOCC2)cc1 [Compound 50, N-(3-morpholinopropyl)-4-(2-(6-phenylimidazo[1,5-a]pyridin-5-yl)acetamido)benzamide] | < 1000 | < 250 |  | 
11 | N#Cc1ccc(NC(=O)Nc2c(-c3ccc(F)cc3)ccc3cncn23)cc1 [Compound 21, 1-(4-cyanophenyl)-3-(6-(4-fluorophenyl)imidazo[1,5-a]pyridin-5-yl)urea] | 1000 to 10000 | 250 to 1500 |  | 
12 | O=C(Cc1c(-c2ccccc2)ccc2cncn12)Nc1cc[nH]n1 [Compound 53, 2-(6-phenylimidazo[1,5-a]pyridin-5-yl)-N-(1H-pyrazol-3-yl)acetamide] | 1000 to 10000 | < 250 |  | 
13 | NS(=O)(=O)NCCNc1nonc1C(=NO)Nc1ccc(F)c(Br)c1 [INCB-024360] |  |  | prevented the expansion of CT26 tumors | effectively inhibit the activity of plasma IDO1
